The term IC50 denotes the concentration at which inhibition is half-maximal. A lower IC50 goes with higher potency.

The target in one assay is human Gal-3 (hGal-3) (Homo sapiens (Human), UniProt P17931). Description: Competitive binding assay: biotinylated hGal-3 binding to microplate-adsorbed asialofetuin (ASF). Conditions: Activity on hGal-3; binding of biotinylated hGal-3 to ASF-coated plates; mean values. The method, boiled down:
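Serially diluted compounds competed with biotinylated human Gal-3 for binding to plate-adsorbed asialofetuin over 3 h at 4 °C. Bound Gal-3 was detected with streptavidin-peroxidase (80 ng/mL, 1 h, 4 °C) and ABTS substrate. IC50 values are means of several measurements.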

Another assay deals with human Gal-1 (hGal-1). Description: Competitive binding assay: biotinylated hGal-1 binding to microplate-adsorbed asialofetuin (ASF). Conditions: Activity on hGal-1; binding of biotinylated hGal-1 to ASF-coated plates; mean values. The method in brief: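 Biotinylated hGal-1 (300–1000 ng/mL; optionally a cysteine-free all-serine variant) incubated 3 h at 4 °C with compound on asialofetuin-coated plates, then streptavidin-peroxidase 1 h at 4 °C. ABTS readout at OD 410 nm after 30–45 min; IC50 given as mean of several runs.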
Chain of human Gal-1 (hGal-1) (P09382 2-135 limits assumed): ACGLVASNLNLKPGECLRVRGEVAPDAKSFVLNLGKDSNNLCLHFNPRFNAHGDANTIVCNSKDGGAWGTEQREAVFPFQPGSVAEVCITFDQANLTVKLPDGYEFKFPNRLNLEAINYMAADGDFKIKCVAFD

Chain of human Gal-3 (hGal-3) (P17931 whole entry): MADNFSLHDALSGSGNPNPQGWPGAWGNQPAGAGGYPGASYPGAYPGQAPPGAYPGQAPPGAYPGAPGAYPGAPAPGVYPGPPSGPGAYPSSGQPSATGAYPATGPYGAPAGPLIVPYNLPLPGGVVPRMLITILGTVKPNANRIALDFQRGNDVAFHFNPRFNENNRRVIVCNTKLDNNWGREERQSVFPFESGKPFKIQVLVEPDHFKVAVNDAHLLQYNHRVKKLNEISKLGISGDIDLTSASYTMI

As to `COc1cccc(N(C(=O)[C@@H]2O[C@H](CO)[C@H](O)[C@H](n3cc(-c4cc(F)c(F)c(F)c4)nn3)[C@H]2OC)[C@H]2CCCC[C@@H]2O)c1` [Example 101, (2R,3R,4S,5R,6R)-5-hydroxy-N-((1S,2S)-2-hydroxycyclohexyl)-6-(hydroxymethyl)-3-methoxy-N-(3-methoxyphenyl)-4-(4-(3,4,5-trifluorophenyl)-1H-1,2,3-triazol-1-yl)tetrahydro-2H-pyran-2-carboxamide], the IC50 at human Gal-3 (hGal-3) amounted to 36 nM; at human Gal-1 (hGal-1), 800 nM.
Regarding `CO[C@@H]1[C@@H](n2cc(-c3cc(F)c(F)c(F)c3)nn2)[C@@H](O)[C@@H](CO)O[C@H]1C(=O)N(c1ccc2ccsc2c1)[C@H]1CCCC[C@@H]1O` [Example 102, (2R,3R,4S,5R,6R)-N-(benzo[b]thiophen-6-yl)-5-hydroxy-N-((1S,2S)-2-hydroxycyclohexyl)-6-(hydroxymethyl)-3-methoxy-4-(4-(3,4,5-trifluorophenyl)-1H-1,2,3-triazol-1-yl)tetrahydro-2H-pyran-2-carboxamide], the figures for the IC50 on human Gal-3 (hGal-3) and at human Gal-1 (hGal-1) were 43 nM and 1240 nM, respectively.
Regarding `CO[C@@H]1[C@@H](n2cc(-c3cc(F)c(F)c(F)c3)nn2)[C@@H](O)[C@@H](CO)O[C@H]1C(=O)N(c1cccc(Br)c1)[C@H]1CCCC[C@@H]1O` [Example 103, (2R,3R,4S,5R,6R)-N-(3-bromophenyl)-5-hydroxy-N-((1S,2S)-2-hydroxycyclohexyl)-6-(hydroxymethyl)-3-methoxy-4-(4-(3,4,5-trifluorophenyl)-1H-1,2,3-triazol-1-yl)tetrahydro-2H-pyran-2-carboxamide], the values for the IC50 on human Gal-3 (hGal-3) and on human Gal-1 (hGal-1) were 25 nM and 238 nM, respectively.
For `COc1cc(Cl)cc(N(C(=O)[C@@H]2O[C@H](CO)[C@H](O)[C@H](n3cc(-c4cc(F)c(F)c(F)c4)nn3)[C@H]2OC)[C@H]2CCCC[C@@H]2O)c1` [Example 104, (2R,3R,4S,5R,6R)-N-(3-chloro-5-methoxyphenyl)-5-hydroxy-N-((1S,2S)-2-hydroxycyclohexyl)-6-(hydroxymethyl)-3-methoxy-4-(4-(3,4,5-trifluorophenyl)-1H-1,2,3-triazol-1-yl)tetrahydro-2H-pyran-2-carboxamide], the IC50 on human Gal-3 (hGal-3) came out at 19 nM; on human Gal-1 (hGal-1) it was 1190 nM.
In the case of `CO[C@@H]1[C@@H](n2cc(-c3cc(F)c(F)c(F)c3)nn2)[C@@H](O)[C@@H](CO)O[C@H]1C(=O)N(c1cc(Cl)ccc1F)[C@H]1CCCC[C@@H]1O` [Example 105, (2R,3R,4S,5R,6R)-N-(5-chloro-2-fluorophenyl)-5-hydroxy-N-((1S,2S)-2-hydroxycyclohexyl)-6-(hydroxymethyl)-3-methoxy-4-(4-(3,4,5-trifluorophenyl)-1H-1,2,3-triazol-1-yl)tetrahydro-2H-pyran-2-carboxamide], the IC50 at human Gal-3 (hGal-3) amounted to 14 nM; on human Gal-1 (hGal-1), 136 nM.
For `CO[C@@H]1[C@@H](n2cc(-c3cc(F)c(F)c(F)c3)nn2)[C@@H](O)[C@@H](CO)O[C@H]1C(=O)N(c1cc2sc(C)nc2cc1C)[C@H]1CCCC[C@@H]1O` [Example 106, (2R,3R,4S,5R,6R)-N-(2,5-dimethylbenzo[d]thiazol-6-yl)-5-hydroxy-N-((1S,2S)-2-hydroxycyclohexyl)-6-(hydroxymethyl)-3-methoxy-4-(4-(3,4,5-trifluorophenyl)-1H-1,2,3-triazol-1-yl)tetrahydro-2H-pyran-2-carboxamide], in that order: 56 nM and 143 nM.
On to `CO[C@@H]1[C@@H](n2cc(-c3cc(F)c(F)c(F)c3)nn2)[C@@H](O)[C@@H](CO)O[C@H]1C(=O)N(c1ccc2nc(Cl)sc2c1)[C@H]1CCCC[C@@H]1O` [Example 107, (2R,3R,4S,5R,6R)-N-(2-chlorobenzo[d]thiazol-6-yl)-5-hydroxy-N-((1S,2S)-2-hydroxycyclohexyl)-6-(hydroxymethyl)-3-methoxy-4-(4-(3,4,5-trifluorophenyl)-1H-1,2,3-triazol-1-yl)tetrahydro-2H-pyran-2-carboxamide], for which the IC50 on human Gal-3 (hGal-3) was determined as 317 nM; on human Gal-1 (hGal-1) it was 1200 nM.
For `COc1cc(C#N)cc(N(C(=O)[C@@H]2O[C@H](CO)[C@H](O)[C@H](n3cc(-c4cc(F)c(F)c(F)c4)nn3)[C@H]2OC)[C@H]2CCCC[C@@H]2O)c1` [Example 108, (2R,3R,4S,5R,6R)-N-(3-cyano-5-methoxyphenyl)-5-hydroxy-N-((1S,2S)-2-hydroxycyclohexyl)-6-(hydroxymethyl)-3-methoxy-4-(4-(3,4,5-trifluorophenyl)-1H-1,2,3-triazol-1-yl)tetrahydro-2H-pyran-2-carboxamide], in that order: 24 nM and 1570 nM.
For `CO[C@@H]1[C@@H](n2cc(-c3cc(F)c(F)c(F)c3)nn2)[C@@H](O)[C@@H](CO)O[C@H]1C(=O)N(c1cc(Br)ccc1C)[C@H]1CCCC[C@@H]1O` [Example 109, (2R,3R,4S,5R,6R)-N-(5-bromo-2-methylphenyl)-5-hydroxy-N-((1S,2S)-2-hydroxycyclohexyl)-6-(hydroxymethyl)-3-methoxy-4-(4-(3,4,5-trifluorophenyl)-1H-1,2,3-triazol-1-yl)tetrahydro-2H-pyran-2-carboxamide], the IC50 at human Gal-3 (hGal-3) is 17 nM; on human Gal-1 (hGal-1), 100 nM.
With `CO[C@@H]1[C@@H](n2cc(-c3cc(F)c(F)c(F)c3)nn2)[C@@H](O)[C@@H](CO)O[C@H]1C(=O)N(c1ccc(Cl)cc1)[C@H]1CCCC[C@@H]1O` [Example 111, (2R,3R,4S,5R,6R)-N-(4-chlorophenyl)-5-hydroxy-N-((1S,2S)-2-hydroxycyclohexyl)-6-(hydroxymethyl)-3-methoxy-4-(4-(3,4,5-trifluorophenyl)-1H-1,2,3-triazol-1-yl)tetrahydro-2H-pyran-2-carboxamide], the half-maximal inhibitory concentration (IC50) was found to be 158 nM on human Gal-3 (hGal-3) and 4220 nM at human Gal-1 (hGal-1).
For `CO[C@@H]1[C@@H](n2cc(-c3cc(F)c(F)c(F)c3)nn2)[C@@H](O)[C@@H](CO)O[C@H]1C(=O)N(c1cc(F)cc(C#N)c1)[C@H]1CCCC[C@@H]1O` [Example 113, (2R,3R,4S,5R,6R)-N-(3-cyano-5-fluorophenyl)-5-hydroxy-N-((1S,2S)-2-hydroxycyclohexyl)-6-(hydroxymethyl)-3-methoxy-4-(4-(3,4,5-trifluorophenyl)-1H-1,2,3-triazol-1-yl)tetrahydro-2H-pyran-2-carboxamide], in that order: 18 nM and 520 nM.
`CO[C@@H]1[C@@H](n2cc(-c3cc(F)c(F)c(F)c3)nn2)[C@@H](O)[C@@H](CO)O[C@H]1C(=O)N(c1cccc(F)c1)[C@H]1CCCC[C@@H]1O` [Example 114, (2R,3R,4S,5R,6R)-N-(3-fluorophenyl)-5-hydroxy-N-((1S,2S)-2-hydroxycyclohexyl)-6-(hydroxymethyl)-3-methoxy-4-(4-(3,4,5-trifluorophenyl)-1H-1,2,3-triazol-1-yl)tetrahydro-2H-pyran-2-carboxamide]: the IC50 on human Gal-3 (hGal-3) was 49 nM; at human Gal-1 (hGal-1), 2010 nM.
For the molecule `CO[C@@H]1[C@@H](n2cc(-c3cc(F)c(F)c(F)c3)nn2)[C@@H](O)[C@@H](CO)O[C@H]1C(=O)N(c1cccc(C#N)c1)[C@H]1CCCC[C@@H]1O` [Example 115, (2R,3R,4S,5R,6R)-N-(3-cyanophenyl)-5-hydroxy-N-((1S,2S)-2-hydroxycyclohexyl)-6-(hydroxymethyl)-3-methoxy-4-(4-(3,4,5-trifluorophenyl)-1H-1,2,3-triazol-1-yl)tetrahydro-2H-pyran-2-carboxamide], the values for the IC50 at human Gal-3 (hGal-3) and at human Gal-1 (hGal-1) were 25 nM and 1000 nM, respectively.

Values taken from patent US12291519B2, “2-hydroxycycloalkane-1-carbamoyl” (Idorsia Pharmaceuticals Ltd, priority 2019, dated 2025).
